Legend:
PPAR signaling pathway [1] = assay: Transcriptional analysis of liver samples from 60% HFD mouse model of diet induced obesity; assay type: in vivo, C57BL/6J male mice
Method: Six-week old C57BL/6J male mice were fed with a 60 kcal % fat diet (Research Diets A12492i) for seven weeks before introduction of either control or 125 mg/kg, BID, initial loading dose of TOFA daily via controlled oral gavage for one week (FIG. 2A). Mice were then treated with either vehicle (control) or 62.5 mg/kg, BID, maintenance dose of TOFA daily via oral gavage for three additional weeks. Upon study termination at 11 weeks, liver samples were collected. Total RNA was extracted from liver tissues (Qiagen RNeasy kit 74106), cDNA libraries were constructed (Roche KAPA HyperPrep kit), sequenced on the NovaSeq6000 platform (Novogene), and a downstream analysis pipeline was performed. Differentially expressed genes (DEGs) were defined by at least one log2-fold change (2-fold in linear scale) with an FDR cutoff of 0.05. For validation, total RNA was used to prepare CDNA (BioRAD iScript™ Reverse Transcription) according to manufacturer's protocol and qPCR was performed with fast SYBR Green Mix (ThermoFisher A25742) on the QuantStudio6 System (Applied Biosystems).

[2] = system: CDAHFD induced NAFLD progression in mice; assay: Dose dependent effect of TOFA in CDAHFD-induced NAFLD progression in mice; assay type: in vivo; conditions: 3 weeks
Method: Six-week-old C57BL/6 male mice were fed with a L-Amino Acid Diet With 60 kcal % Fat With 0.1% Methionine and No Added Choline (Research Diets A06071302i) for three weeks before introduction of either vehicle (control) or TOFA via oral gavage for an additional three weeks (FIG. 1a). Mice were gavaged orally twice daily with varying doses of TOFA (0, 25, 50, 125, or 250 mg/kg per day). Upon study termination at six weeks, serum and liver samples were collected. Serum liver damage biomarkers, alanine transaminase (ALT) and aspartate transaminase (AST), were measured by commercially available kits (abcam105134 and abcam 105135, respectively). Hepatic triglycerides were detected from liver samples from a commercially available kit (abcam65336). Liver samples were also scored for degree of hepatic steatosis based on their hematoxylin and eosin (H&E) staining.

PPAR signaling pathway [3] = assay: RNA sequencing, qPCR and western blot of liver samples from CDAHFD late stage NAFLD/NASH mice; assay type: in vivo, C57BL/6 male mice
Method: Six-week-old C57BL/6 male mice were fed with a L-Amino Acid Diet With 60 kcal % Fat With 0.1% Methionine and No Added Choline (Research Diets A06071302i) for eight weeks before introduction of either vehicle (control) or 250 mg/kg of TOFA daily via twice daily controlled oral gavage for an additional four weeks (FIG. 3A). Upon study termination at 12 weeks, serum and liver samples were collected. Serum liver damage biomarkers, ALT and AST, were measured by commercially available kits (abcam105134 and abcam 105135, respectively). Hepatic and serum triglyceride levels were measured from a commercially available kit (abcam65336). Liver samples were fixed in 4% paraformaldehyde and embedded in paraffin blocks for sectioning and subsequently stained with hematoxylin and eosin (H&E) or Picrosirius Red with a fast green dye background. Frozen fresh liver tissue was embedded in OCT, sectioned, and subsequently stained with Oil Red O.
Liver samples were collected from mice in Example 3 (see above). Total RNA was extracted from liver tissues (Qiagen RNeasy kit), cDNA libraries were constructed (Roche KAPA HyperPrep kit), sequenced on the NovaSeq6000 platform (Novogene), and a downstream analysis pipeline was performed. Differentially expressed genes (DEGs) were defined by at least one log2-fold change (2-fold in linear scale) with an FDR cutoff of 0.05. For validation, total RNA was used to prepare cDNA (BioRAD iScript™ Reverse Transcription) according to manufacturer's protocol and quantitative polymerase chain reaction (qPCR) was performed with fast SYBR Green Mix (ThermoFisher) on the QuantStudio6 System (Applied Biosystems). Protein expression levels were measured by western blot using antibodies against very low density lipoprotein receptor (VLDLR) (AF2258, 1:2000) and btubulin (CST2146, 1:1000). Membranes were developed using a horse radish peroxidase (HRP) secondary antibody (1:5000) and visualized using an enhanced chemiluminescent HRP substrate (Thermo34577).

chow diet fed mice = assay: Tolerability and toxicity of TOFA in ad libitum fed chow mice; assay type: in vivo, C57BL/6J male mice; conditions: oral gavage
Method: Eleven-week-old C57BL/6J male mice were fed with PicoLab Rodent Diet (Purina 5053), or chow diet, ad libitum while being treated with either control or 125 mg/kg, BID by oral gavage for three weeks. Mice weights were tracked during the entire time course. Upon study termination, serum and liver samples were collected. Serum biomarkers such as blood urea nitrogen (BUN) and creatinine were assessed by commercially available kits (abcam83362 and Cayman700460, respectively). Additionally, hepatic and serum triglyceride and cholesterol levels were measured by commercially available kits (abcam65336 and abcam65390, respectively).

[4] = 125 mg/kg BID 1 week then 62.5 mg/kg BID 3 weeks, oral gavage
[5] = TOFA 0, 25, 50, 125, or 250 mg/kg per day, oral gavage twice daily
[6] = liver samples of Example 3, RNA-seq
[7] = 125 mg/kg, BID, three weeks, chow diet

CCCCCCCCCCCCCCOc1ccc(C(=O)O)o1 [TOFA, 5-(Tetradecyloxy)-2-furoic acid]
genes in the PPAR signaling pathway (BioPlanet 2019 database) (PPAR signaling pathway [1]; [4]): upregulated various genes under PPAR transcriptional control
highest upregulated genes (RNAseq of liver) (PPAR signaling pathway [1]; [4]): canonical PPAR-alpha target genes
transcriptional regulatory relationship analysis of upregulated genes (TRRUST Transcription Factors 2019) (PPAR signaling pathway [1]; [4]): PPARA is one of the major acting factors in transcriptional regulation
downstream PPAR target genes by RT-qPCR (fatty acid beta-oxidation, acyl-CoA processing, lipoprotein uptake and metabolism) (PPAR signaling pathway [1]; liver mRNA relative to r18s mRNA): upregulated
degree of hepatic steatosis (H&E score) [2, 5]: decreased degree of hepatic steatosis correlating to an increased dosage of TOFA
liver triglyceride contents per gram of liver [2, 5]: decreased in a dose dependent manner
serum ALT activity levels [2, 5]: dose dependent decrease
serum AST activity levels [2, 5]: dose dependent decrease
tolerability ([2]; TOFA up to 250 mg/kg per day, oral): well tolerated
protein expression levels of VLDLR (western blot) (PPAR signaling pathway [3]; liver samples of Example 3): increase in protein expression levels
GSEA: inflammatory response (PPAR signaling pathway [3]; [6]): negative correlation
GSEA: oxidative phosphorylation, fatty acid metabolism, peroxisomes (PPAR signaling pathway [3]; [6]): significantly upregulated
genes of the PPAR signaling pathway (2021 KEGG human database) (PPAR signaling pathway [3]; [6]): upregulated various genes under PPAR transcriptional control
expression of VLDLR gene (mRNA, qPCR) (PPAR signaling pathway [3]; liver samples of Example 3, relative to r18S mRNA): significant increase
highest upregulated genes (RNA-seq of liver) (PPAR signaling pathway [3]; liver samples of Example 3, FDR cutoff 0.05, 2-fold change): canonical PPAR-alpha target genes
tolerability (chow diet fed mice; 125 mg/kg, BID, three weeks): well tolerated
body weight (chow diet fed mice; [7]): no observed weight change
cholesterol levels in serum (chow diet fed mice; [7]): No changes
cholesterol levels in the liver (chow diet fed mice; [7]): No changes
liver triglyceride levels (chow diet fed mice; [7]): observed decrease
serum blood urea nitrogen (BUN) (chow diet fed mice; [7]): no drug-induced kidney damage
serum creatinine (chow diet fed mice; [7]): no drug-induced kidney damage
serum triglyceride levels (chow diet fed mice; [7]): no significant change
oral bioavailability (chow diet fed mice; mice): orally bioavailable

From US20260034091A1, “Compositions and Methods for Treating Metabolic Disorders” (The Regents of the University of California, priority 2022, published 2026)
